One may read the viscosity as the internal friction of a fluid under shear. In general, speed of sound refers to the propagation velocity of pressure waves in the medium. Usually mass density stands for mass per unit of volume.

Where “and” joins values, the source holds several entries; their conditions need not be identical. Identical values can stand only once. Numbers after ± are expanded uncertainties.

Drawing on the NIST ThermoML archive (doi:10.1016/j.jct.2008.07.010), this text covers viscosity, speed of sound and mass density for 5 compounds.

The conditions of data set [1]: 101 kPa, Liquid; for viscosity: Capillary tube (Ostwald / Ubbelohde) method; for speed of sound: Sing-around technique in a fixed-path interferometer; for mass density: Vibrating tube method.
Data set [2] can be described thus: xn = mol fraction of the nth substance listed. Conditions: 101 kPa, Liquid, x1 = 1; for viscosity: Capillary tube (Ostwald / Ubbelohde) method; for speed of sound: Sing-around technique in a fixed-path interferometer; for mass density: Vibrating tube method.

As to `CC(C)CCCC(C)CCCC(C)CCCCC(C)CCCC(C)CCCC(C)C` (stereo not given) [2,6,10,15,19,23-hexamethyltetracosane], in data set [1] (298.15 K), the viscosity is given as 28.26 ± 0.31 mPa·s, the speed of sound was found to be 1381.9 ± 1.3 m/s and the mass density was 805.122 ± 0.24 kg/m3. In addition, in data set [1] (303.15 K), the viscosity is given as 22.09 ± 0.26 mPa·s, the speed of sound was determined as 1364.1 ± 1.3 m/s and the mass density worked out at 801.912 ± 0.24 kg/m3. In data set [1] (308.15 K), the viscosity turned out to be 17.77 ± 0.21 mPa·s, the speed of sound was determined as 1346.5 ± 1.3 m/s and the mass density amounted to 798.709 ± 0.24 kg/m3.
In the case of `CC(C)O` [propan-2-ol] + CC(C)CCCC(C)CCCC(C)CCCCC(C)CCCC(C)CCCC(C)C, the values for the viscosity in data set [2] (298.15 K), in data set [2] (303.15 K) and in data set [2] (308.15 K) were 2.061 ± 0.018 mPa·s, 1.758 ± 0.015 mPa·s and 1.573 ± 0.013 mPa·s, respectively. Moreover, the speed of sound in data set [2] (298.15 K) worked out at 1139.3 ± 0.9 m/s; in data set [2] (303.15 K) it was 1122 ± 0.8 m/s; in data set [2] (308.15 K), 1104.5 ± 0.8 m/s. Besides, the mass density in data set [2] (298.15 K) came to 781.152 ± 0.15 kg/m3; in data set [2] (303.15 K) it was 776.87 ± 0.15 kg/m3; in data set [2] (308.15 K) it was 772.511 ± 0.15 kg/m3.
As to `CCCCCCCCCCCCCCCC` [hexadecane], the viscosity in data set [1] (298.15 K) worked out at 3.041 ± 0.026 mPa·s; in data set [1] (303.15 K), 2.706 ± 0.024 mPa·s; in data set [1] (308.15 K) it was 2.409 ± 0.022 mPa·s. Further, the values for the speed of sound in data set [1] (298.15 K), in data set [1] (303.15 K) and in data set [1] (308.15 K) were 1338.6 ± 1.3 m/s, 1320 ± 1.3 m/s and 1301.7 ± 1.3 m/s, respectively. Further, the mass density turned out to be 770.456 ± 0.24 kg/m3 in data set [1] (298.15 K), 766.981 ± 0.24 kg/m3 in data set [1] (303.15 K) and 763.52 ± 0.24 kg/m3 in data set [1] (308.15 K).
With `CC(C)O` [propan-2-ol] + CCCCCCCCCCCCCCCC, in data set [2] (298.15 K), the viscosity amounted to 2.061 ± 0.018 mPa·s, the speed of sound is listed as 1139.3 ± 0.85 m/s and the mass density was found to be 781.152 ± 0.15 kg/m3. In data set [2] (303.15 K), the viscosity was determined as 1.758 ± 0.015 mPa·s, the speed of sound is given as 1122 ± 0.8 m/s and the mass density is 776.87 ± 0.15 kg/m3. In data set [2] (308.15 K), the viscosity came to 1.573 ± 0.013 mPa·s, the speed of sound stood at 1104.5 ± 0.8 m/s and the mass density was determined as 772.511 ± 0.15 kg/m3.
`CC(C)O` [propan-2-ol]: in data set [1] (298.15 K), the viscosity is reported as 2.061 ± 0.018 mPa·s; the speed of sound was 1139.3 ± 0.85 m/s and 1139.3 ± 0.9 m/s; the mass density is 781.152 ± 0.15 kg/m3. Also, in data set [1] (303.15 K), the viscosity is reported as 1.758 ± 0.015 mPa·s, the speed of sound is given as 1122 ± 0.8 m/s and the mass density turned out to be 776.87 ± 0.15 kg/m3. Further, in data set [1] (308.15 K), the viscosity stood at 1.573 ± 0.013 mPa·s, the speed of sound was determined as 1104.5 ± 0.8 m/s and the mass density was found to be 772.511 ± 0.15 kg/m3.
